SMILES strings stand for the structures. ≈ marks a conversion by molar mass, not a printed value.

In general, MIC refers to the smallest concentration in the dilution series that meets the test's criterion for growth inhibition. Read a low MIC as greater potency.

What all share (format): functional
Test [1] deals with Salmonella enterica. The experiment in a line: Antibacterial activity against Salmonella enterica ATCC 14028 by CLSI method.
Test [2] deals with Salmonella enterica. Briefly: Antibacterial activity against acrB-deficient Salmonella enterica NKS175 by CLSI method.
For test [3], the system named is Salmonella enterica. The experiment in a line: Antibacterial activity against acrB-deficient Salmonella enterica NKS291 harboring hns gene by CLSI method.
Test [4] relates to Salmonella enterica. The experiment in a line: Antibacterial activity against tolC-deficient Salmonella enterica NKS174 by CLSI method.
The test system of test [5] is Salmonella enterica. The experiment in a line: Antibacterial activity against tolC-deficient Salmonella enterica NKS419 harboring hns gene by CLSI method.
The test system of test [6] is Salmonella enterica. The experiment in a line: Antibacterial activity against acrEF-deficient Salmonella enterica NKS176 by CLSI method.
Test [7] deals with Salmonella enterica. Briefly: Antibacterial activity against acrB-deficient Salmonella enterica NKS422 harboring acrEF gene by CLSI method.
The subject of test [8] is Salmonella enterica. Briefly: Antibacterial activity against acrB-deficient Salmonella enterica NKS416 harboring acrEF, hns gene by CLSI method.

With `Cn1nnnc1SCC1=C(C(=O)O)N2C(=O)[C@@H](NC(=O)[C@H](O)c3ccccc3)[C@H]2SC1` [CEFAMANDOLE], the MIC in the test with Salmonella enterica [1] amounted to 1 µg/mL (≈ 2.16 µM); with Salmonella enterica [2], 0.063 µg/mL (≈ 0.136 µM); in the test on Salmonella enterica [3] it was 0.25 µg/mL (≈ 0.541 µM); in the test with Salmonella enterica [4], 0.063 µg/mL (≈ 0.136 µM); in the test on Salmonella enterica [5], 0.063 µg/mL (≈ 0.136 µM); in the test on Salmonella enterica [6] it was 0.5 µg/mL (≈ 1.08 µM). Besides, the MIC against Salmonella enterica [7] and in the test on Salmonella enterica [8] was 0.063 µg/mL (≈ 0.136 µM) each time.

Consider `Cc1onc(-c2ccccc2Cl)c1C(=O)N[C@@H]1C(=O)N2[C@@H]1SC(C)(C)[C@@H]2C(=O)O` [CLOXACILLIN], for which the MIC with Salmonella enterica [1] is 512 µg/mL (≈ 1170 µM); against Salmonella enterica [2], 4 µg/mL (≈ 9.18 µM); against Salmonella enterica [3], 128 µg/mL (≈ 294 µM); against Salmonella enterica [4], 0.5 µg/mL (≈ 1.15 µM); in the test on Salmonella enterica [5] it was 0.5 µg/mL (≈ 1.15 µM); against Salmonella enterica [6], 512 µg/mL (≈ 1170 µM). The MIC in the test with Salmonella enterica [7] and against Salmonella enterica [8] was 4 µg/mL (≈ 9.18 µM) each time.

Take `CN(C)c1ccc2nc3ccc(N(C)C)cc3[s+]c2c1.[Cl-]` [METHYLENE BLUE ANHYDROUS]: the MIC against Salmonella enterica [1] is more than 512 µg/mL; against Salmonella enterica [2], 16 µg/mL; against Salmonella enterica [3], 512 µg/mL; against Salmonella enterica [4], 16 µg/mL; against Salmonella enterica [5], 16 µg/mL; in the test on Salmonella enterica [6] it was more than 512 µg/mL. For the same molecule, the MIC against Salmonella enterica [7] and against Salmonella enterica [8] was 16 µg/mL throughout.

`CCOc1ccc2ccccc2c1C(=O)N[C@@H]1C(=O)N2[C@@H]1SC(C)(C)[C@@H]2C(=O)O` [NAFCILLIN]: the MIC with Salmonella enterica [1] was more than 512 µg/mL; with Salmonella enterica [2], 8 µg/mL (≈ 19.3 µM); against Salmonella enterica [3] it was 64 µg/mL (≈ 154 µM); against Salmonella enterica [4], 1 µg/mL (≈ 2.41 µM); with Salmonella enterica [5], 1 µg/mL (≈ 2.41 µM); in the test with Salmonella enterica [6], more than 512 µg/mL. Moreover, the MIC against Salmonella enterica [7] and with Salmonella enterica [8] was 4 µg/mL (≈ 9.65 µM) in each case.

On to `Cc1onc(-c2ccccc2)c1C(=O)N[C@@H]1C(=O)N2[C@@H]1SC(C)(C)[C@@H]2C(=O)O` [OXACILLIN], for which the MIC stood at 512 µg/mL (≈ 1280 µM) with Salmonella enterica [1]; 2 µg/mL (≈ 4.98 µM) against Salmonella enterica [2]; 16 µg/mL (≈ 39.9 µM) in the test on Salmonella enterica [3]; 0.5 µg/mL (≈ 1.25 µM) in the test on Salmonella enterica [4]; 0.5 µg/mL (≈ 1.25 µM) against Salmonella enterica [5]; 512 µg/mL (≈ 1280 µM) with Salmonella enterica [6]. Besides, the MIC against Salmonella enterica [7] and with Salmonella enterica [8] was 1 µg/mL (≈ 2.49 µM) throughout.

On to `CC/N=c1\cc2oc3cc(NCC)c(C)cc3c(-c3ccccc3C(=O)OCC)c-2cc1C.Cl` [RHODAMINE 6G HYDROCHLORIDE], for which the MIC is more than 512 µg/mL in the test with Salmonella enterica [1]; 8 µg/mL against Salmonella enterica [2]; 32 µg/mL against Salmonella enterica [3]; 8 µg/mL against Salmonella enterica [4]; 8 µg/mL against Salmonella enterica [5]; more than 512 µg/mL in the test with Salmonella enterica [6]. Also, the MIC in the test on Salmonella enterica [7] and in the test with Salmonella enterica [8] was 8 µg/mL in each case.

(Values after ChEMBL document CHEMBL1649561, “H-NS modulates multidrug resistance of Salmonella enterica serovar Typhimurium by repressing multidrug efflux genes acrEF” (2009).)
